Measurements taken from patent US20230009366A1, “Using Alternating Electric Fields at Different Frequencies to Increase Permeability of the Blood Brain Barrier and also to Provide Other Benefits” (Novocure GmbH, priority 2021, published 2023).

Key:
BBB of rat brain [1] = experiment: DCE-MRI of gadolinium contrast agent accumulation in rat brain; format: in vivo; conditions: for contrast agent accumulation in the brain tissue after recovery: 100 kHz fields 72 h followed by 96 h without fields
Method: Yet another set of in vivo experiments was performed using Dynamic Contrast Enhanced MRI (DCE-MRI) with intravenous injection of Gadolinium contrast agent (Gd-DTPA, Magnetol, MW 547). In these experiments, test rats were treated with 100 kHz alternating electric fields for 72 h, and control rats were not treated with alternating electric fields for the same period of time. After this 72 h period, the alternating electric field was turned off, the rats were anesthetized, and a series of 60 Tlw MRI scans (each of the scans having a duration of 28 seconds) was acquired. The gadolinium contrast agent was injected into the rat's tail vein during the 7th of these 60 scans.
The image analysis for each rat included (1) determining a baseline for each voxel by calculating the mean of the first six Tlw MRI scans for each voxel (i.e., the scans prior to the injection of the gadolinium); (2) computing voxel by voxel, the percent signal change (i.e., gadolinium accumulation) over time relative to the baseline; (3) segmenting the brain into anterior, middle, and posterior segments; (4) generating for each of the three segments the mean percent signal change with respect to the baseline over all the voxels in the respective segment and then (5) averaging 4 consecutive time points (i.e. 4 scans) together. Finally, the data from all of the rats within any given group were averaged together.
To test whether this increase in permeability of the BBB was temporary, the same test conditions were repeated, but followed with an additional 96 hours without alternating electric fields. After this 96 hour period, a series of 60 Tlw MM scans (each of the scans having a duration of 28 seconds) was acquired using the same procedure described above (including the gadolinium injection). The results of this portion of the DCE-MM experiment for each of the three segments of the brain are also depicted in FIG. 8. […] From this we can conclude that the permeability of the BBB returns to normal after the alternating electric fields are discontinued.
The relationship between the intensity of the alternating electric fields and the impact of those fields on BBB integrity and permeability was also apparent from in vivo experiments in rats using serial dynamic contrast-enhanced (DCE) MM to measure gadolinium (Gd) uptake after 100 kHz alternating electric fields were applied for 72 hours. The rat's brains were segmented into three regions (anterior, posterior, and middle), and simulations of the alternating electric fields delivery to those three regions yielded field strengths of 1.5±0.6 V/cm RMS, 2.1±1.2 V/cm RMS, and 2.7±1.7 V/cm RMS respectively. […] These findings also indicate that the cells' response to alternating electric fields depends on the intensity of the fields.

GBM39/Luc cells = experiment: Drug sensitivity / synergy with TTFields; format: cell-based, human
GBM F98 cells = experiment: Paclitaxel plus alternating electric fields in orthotopic glioblastoma rats; format: in vivo, rat
Method: Another set of in vivo experiments was performed to determine whether paclitaxel (PTX, which is a drug that ordinarily cannot traverse the BBB) can make it across the BBB when the subject is treated with alternating electric fields. In one of these experiments, glioblastoma was induced in rats by injecting them orthotopically with GBM F98 cells on day 0 of the experiment. On day 6, a first set of MRI scans of each rat's brains was obtained. Alternating electric fields at 100 kHz were applied to all the rats on days 7 through 10. On day 10 (i.e., after applying the fields for 72 hours), some of the rats were injected i.p. with 25 mg/kg PTX, while other rats were not injected. Subsequently, on day 13 (i.e., 3 days post PTX administration), a second set of MRI scans of each rat's brain was obtained. Ki67 (red) and DAPI (blue) staining was evaluated for the test and control rats.
A similar experiment using a 15 mg/kg dose of PTX was performed, except that instead of quantifying the Ki67/DAPI ratio on day 13, Mill scans and post mortem tissue sections were used to determine the fold increase of the tumor volume on day 15. The tumor volumes from these experiments are depicted in FIG. 11. […] And the inventors have concluded that the alternating electric fields allow the PTX (or metabolites thereof) to cross the BBB.

human glioblastoma cells = experiment: Bioluminescence substrate permeation in luciferase-expressing glioblastoma cells; format: cell-based; conditions: TTFields exposure
Description: Bioluminescence imaging: For all bioluminescence work, we used genetically-modified GBM2, GBM39 and U87-MG whereby the glioblastoma cells were transfected with lentiviral vectors that expressed either firefly luciferase (fLuc for GBM39) or a fusion protein of GFP and firefly luciferase (GFP/fLuc for GBM2 and eGFP-fLuc for U87-MG) or a Renilla luciferase-Red Fluorescence protein fusion (RLuc-RL8 for KR158B).

BBB of rat brain [2] = experiment: Evans Blue accumulation in rat brain after alternating electric fields; format: in vivo; conditions: 100 kHz fields 72 h vs sham heat/control
Description: A set of in vivo experiments on rats was also run to quantify the increase in vessel permeability caused by exposure to the alternating electric fields. These experiments used Evans Blue (EB) dye, which is an azo dye that has a very high affinity for serum albumin (molecule size ˜69 kDa). Because of its large molecule size, serum albumin will ordinarily not be able to get past the BBB.
This was accomplished by shaving each rat's head, positioning a first pair of capacitively coupled electrodes on the top and bottom of the rat's head, and positioning a second pair of capacitively coupled electrodes on the left and right sides of the rat's head. A 100 kHz AC voltage was then applied between the top and bottom electrodes for 1 second, followed by a 100 kHz AC voltage applied between the right and left electrodes for 1 second, in a repeating sequence.
Under the conditions indicated in Table 1 and for the times indicated on Table 1, EB was injected intravenously into the tail vein under anesthesia (Once injected, EB immediately binds to Albumin), and the EB was allowed to circulate for 2 hours in all cases. The following steps were then performed: (a) intracardiac perfusion with saline; (b) brains are sliced in four pieces with a brain slicer; (c) pieces were photographed to localize staining and weighted; (d) EB extraction after tissue homogenization with TCA 50% (1:3) and centrifuge and (e) EB quantification at 610 nm. Results are given as μg EB per g tissue.
During the experiment, two animals from group 2 and one animal from group 4 were excluded (disrupted treatment, failure to inject EB into the tail vein). There were no differences between the animals treated with alternating electric fields (groups 1 and 2) and therefore these animals were grouped together. Similarly, there were no differences between sham heat and control animals (groups 3 and 4) and therefore these animals were grouped together.
EB accumulation in these four specific sections was then measured. In addition, a computer simulation was performed to determine the field strength in each of these four sections. […]

U87-MG/eGFP-fLuc cells = experiment: Reversibility of TTFields-induced uptake; format: cell-based, human; conditions: TTFields 24 h vs none vs TTFields 24 h followed by no TTFields 24 h
Method: To assess the reversibility of the effect of TTFields on cancer cells, U87-MG/eGFP-fLuc cells were subjected to three conditions: (1) No TTFields exposure, standard cell culture conditions (37° C., […], 5% CO2), (2) TTFields exposure for 24 h and (3) TTFields exposure for 24 h followed by no TTFields exposure for 24 h. The readouts of BLI, PpIX fluorescence (5-ALA product) and Dextran-FITC (4 kDa) fluorescence were acquired. All experimental conditions were done in triplicate. […] Here, NS=not significant; BLI=bioluminescent imaging; eGFP=enhanced green fluorescence protein; fLuc=firefly luciferase; 5-ALA=5 aminolevulinic acid; FITC=fluorescein isothiocyanate; PpIX=protoporphyrin IX; and FL=fluorescence.
In vitro tumor treating field apparatus: The coverslips were transferred to a ceramic dish of the Inovitro™ system, which in turn was mounted onto Inovitro™ base plates (Novocure Ltd., Haifa, Israel). Tumor treating fields at 200 kHz (1-4 V/cm) were applied through an Inovitro™ power generator. Incubator ambient temperatures spanned 20-27° C. with a target temperature of 37° C. in the ceramic dishes upon application of the TTFields. Duration of TTFields exposure lasted anywhere from 0.5 to 72 h, after which coverslips were removed and processed for the appropriate bioassays (see below). […]

firefly luciferase = target: T1, firefly luciferase (Photinus pyralis, UniProt P08659); experiment: Activity of purified firefly luciferase under TTFields; format: biochemical
T1 construct: purchased Sigma Aldrich Inc (St. Louis, Mo.) SRE0045-2MG
Method: U87-MG/eGFP-fLuc cells were seeded on Thermanox glass coverslips, allowed to settle and grow, and then subjected to either TTFields or no TTFields. […] This increase in BLI occurred as early as 30 minutes after commencement of TTFields and continued to 24 h of TTFields exposure. […] Without being bound by this theory, it is believed that the elevation in bioluminescence was not due to a direct effect of TTFields on firefly luciferase activity because exposure of purified firefly luciferase to 200 kHz TTFields led to over a 1000-fold loss in enzymatic activity 60 minutes after initiation of TTFields.
FIG. 16B depicts the effect of TTFields on eGFP fluorescence in U87-MG/eGFP-fLuc cells observed from time course of representative images (not shown) for TTFields-exposed vs. TTFields-unexposed U87-MG/eGFP-fLuc. […] More specifically, FIG. 16C depicts the effect of TTFields on the fLuc bioluminescence (fLuc-BLI) over eGFP fluorescence (eGFP-FL) ratio for U87-MG/eGFP-fLuc cells as a function of length of TTFields exposure; and FIG. 16D depicts the effect of TTFields exposure vs. non-exposure on the fLuc-BLI/eGFP-FL ratio as a function of TTFields exposure time (hours).

T1 sequence (P08659 whole entry): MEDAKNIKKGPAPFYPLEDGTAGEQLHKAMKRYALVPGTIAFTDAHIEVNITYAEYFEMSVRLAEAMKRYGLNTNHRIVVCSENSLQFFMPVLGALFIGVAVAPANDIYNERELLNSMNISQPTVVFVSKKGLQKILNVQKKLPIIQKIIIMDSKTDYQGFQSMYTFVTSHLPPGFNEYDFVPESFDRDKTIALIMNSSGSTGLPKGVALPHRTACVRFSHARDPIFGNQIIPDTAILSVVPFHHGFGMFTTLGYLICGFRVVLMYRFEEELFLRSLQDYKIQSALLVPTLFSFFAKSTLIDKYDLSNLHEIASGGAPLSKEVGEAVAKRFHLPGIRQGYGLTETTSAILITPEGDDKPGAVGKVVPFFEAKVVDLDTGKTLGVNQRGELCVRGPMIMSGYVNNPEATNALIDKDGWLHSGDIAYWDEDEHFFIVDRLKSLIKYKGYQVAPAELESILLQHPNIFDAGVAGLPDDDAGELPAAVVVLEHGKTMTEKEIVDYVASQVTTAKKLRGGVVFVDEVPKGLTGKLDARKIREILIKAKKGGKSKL

With `O=C([O-])CN(CCN(CC(=O)[O-])CC(=O)O)CCN(CC(=O)[O-])CC(=O)O.[Gd+3]` [Gd-DTPA] the “Gd accumulation in the anterior part of the brain” value (BBB of rat brain [1]; 100 kHz fields 72 h) was “no significant Gd accumulation”, the “signal enhancement in the middle and posterior brains” value (BBB of rat brain [1]; 100 kHz fields 72 h, about 10 minutes after Gd injection, vs control rats) was “significantly increased signal enhancement” and the “contrast agent accumulation in the brain tissue after recovery” value (BBB of rat brain [1]; listed as Gd) was “no significant accumulation”. The “contrast agent accumulation in the brain tissue after recovery” value (BBB of rat brain [1]; listed as contrast agent) was “not significantly different”, the “contrast agent accumulation in the brain tissue” value (BBB of rat brain [1]; 100 kHz fields 72 h vs control rats) was “significantly higher” and the “spatial distribution of Gd enhancement” value (BBB of rat brain [1]; test rats, 20 to 23 minutes post-contrast administration) was “distributed in the whole brain”.
For `CCc1c2c(nc3ccc(OC(=O)N4CCC(N5CCCCC5)CC4)cc13)-c1cc3c(c(=O)n1C2)COC(=O)[C@]3(O)CC` [Irinotecan], the “synergy of TTFields plus drug” value (GBM39/Luc cells) was “synergy was found” and the “sensitivity of cells to drug” value (GBM39/Luc cells; TTFields for 3 days vs no TTFields) was “improves the sensitivity”.
For `CC(=O)O[C@H]1C(=O)[C@@]2(C)[C@H]([C@H](OC(=O)c3ccccc3)[C@]3(O)C[C@H](OC(=O)[C@H](O)[C@@H](NC(=O)c4ccccc4)c4ccccc4)C(C)=C1C3(C)C)[C@]1(OC(C)=O)CO[C@@H]1C[C@@H]2O` [PTX, paclitaxel], the “fold increase of the tumor volume” value (GBM F98 cells; 15 mg/kg PTX + 100 kHz fields vs heat only, heat+PTX, fields only, day 15) was “significant decrease in the fold tumor volume increase” and the “Ki67/DAPI ratio (cell proliferation in the GBM tumor)” value (GBM F98 cells; 25 mg/kg PTX i.p. after 72 h 100 kHz fields vs fields only, day 13) was “significant decrease in cell proliferation”.
In the case of `Oc1ccc(Cc2nc3c(Cc4ccccc4)nc(-c4ccc(O)cc4)cn3c2O)cc1` [coelenterazine], the “permeation of luciferase substrate through the plasma membrane” value (human glioblastoma cells) is reported as “increased permeation”.
With `Cc1cc(-c2ccc(/N=N/c3ccc4c(S(=O)(=O)O)cc(S(=O)(=O)O)c(N)c4c3O)c(C)c2)ccc1/N=N/c1ccc2c(S(=O)(=O)O)cc(S(=O)(=O)O)c(N)c2c1O` [EB, Evans Blue] the “EB accumulation in posterior sections (3, 4)” value (BBB of rat brain [2]; EB i.v., 2 h circulation) was “smaller increase (that was not statistically significant)”, the “EB accumulation in sections 1, 2 (frontal cerebrum)” value (BBB of rat brain [2]; EB i.v., 2 h circulation) was “statistically significant increase” and the “average EB accumulation in the rat brain, averaged over all four sections” value (BBB of rat brain [2]; p<0.05) was “higher accumulation”.
For `O=C(O)[C@H]1CSC(c2nc3ccc(O)cc3s2)=N1` [D-luciferin], the “reversibility of increased uptake” value (U87-MG/eGFP-fLuc cells) was “reversibly increase uptake” and the “permeation of luciferase substrate through the plasma membrane” value (human glioblastoma cells) was “increased permeation”.
For “firefly luciferase: purified firefly luciferase enzyme”, the “loss in enzymatic activity” value (firefly luciferase; 200 kHz TTFields, 60 minutes after initiation) was greater than 1000 fold and the “activity of purified firefly luciferase” value (firefly luciferase; TTFields vs no TTFields, p<0.01) was “significantly decreased activity”.
